Experimental data taken from PMC8317135 (Journal of medicinal chemistry, 2021).
Entries after “also recorded” stand apart in the source; their conditions may differ. Read-outs that look alike come from different tables or passages of the source.

How the values were obtained:
[1] = molecular target: T1, hP2Y14R (Homo sapiens, UniProt Q15391); details: for hP2Y14R affinity in words: hP2Y14R-expressing CHO cells, tracer 2
T1 sequence (Q15391 1-338): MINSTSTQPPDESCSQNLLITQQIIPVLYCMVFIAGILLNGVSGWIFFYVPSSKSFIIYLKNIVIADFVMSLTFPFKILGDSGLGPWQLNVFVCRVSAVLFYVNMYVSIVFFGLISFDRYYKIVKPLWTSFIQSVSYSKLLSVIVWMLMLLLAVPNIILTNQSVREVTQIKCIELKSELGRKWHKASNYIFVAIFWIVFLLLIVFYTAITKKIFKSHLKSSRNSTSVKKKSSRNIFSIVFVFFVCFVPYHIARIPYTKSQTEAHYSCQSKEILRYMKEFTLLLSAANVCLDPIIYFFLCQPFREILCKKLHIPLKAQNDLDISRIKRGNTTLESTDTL

[2] = tested on: 46 receptors and channels; assay: PDSP off-target radioligand binding screen; details: radioligand binding at 46 receptors and channels
[3] = molecular target: DOR (δ-opioid receptor) (Homo sapiens, UniProt P41143); assay: PDSP radioligand binding, DOR
[4] = Lipophilicity based on HPLC retention time; type: physicochemical; details: relative to 1a
[5] = tested on: CCI-induced mechano-allodynia; details: mouse; cited from earlier work
[6] = molecular target: hERG (Homo sapiens, UniProt Q12809); assay: cell-based
[7] = tested on: eosinophils in the bronchoalveolar lavage fluid (BALF); assay: Ovalbumin/Aspergillus protease mouse model of allergic asthma, BALF leukocytes; type: in vivo; details: 2 days post-challenge; for eosinophil counts in the BALF / efficacy in asthma model: 20 μmol kg^−1, i.p. prior to allergen challenge
[8] = in vivo; details: male, Wistar, rat
[9] = tested on: CCI-induced mechano-allodynia; assay: Chronic constriction injury; details: mouse
[10] = not given; remark: listed apart in the source
[11] = molecular target: T1, hP2Y14R; assay: cell-based; details: IC50 / affinity at hP2Y14R (μM), hP2Y14R-expressing CHO cells, tracer 2
[12] = tested on: porcine liver esterase (PLE); assay: Esterase cleavage of prodrugs by porcine liver esterase; details: for percent cleavage at 72 h: pH 7.3 aqueous medium, PLE, 37 °C; for half-life at 1 mM: pig, pH 7.3
[13] = male Wistar rats, 1.0 mg kg^−1 i.p.
[14] = male Wistar rats, 3.0 mg kg^−1 i.p.
[15] = male Wistar rats, 10 mg kg^−1 i.p.

DOR (δ-opioid receptor), sequence (P41143 whole entry): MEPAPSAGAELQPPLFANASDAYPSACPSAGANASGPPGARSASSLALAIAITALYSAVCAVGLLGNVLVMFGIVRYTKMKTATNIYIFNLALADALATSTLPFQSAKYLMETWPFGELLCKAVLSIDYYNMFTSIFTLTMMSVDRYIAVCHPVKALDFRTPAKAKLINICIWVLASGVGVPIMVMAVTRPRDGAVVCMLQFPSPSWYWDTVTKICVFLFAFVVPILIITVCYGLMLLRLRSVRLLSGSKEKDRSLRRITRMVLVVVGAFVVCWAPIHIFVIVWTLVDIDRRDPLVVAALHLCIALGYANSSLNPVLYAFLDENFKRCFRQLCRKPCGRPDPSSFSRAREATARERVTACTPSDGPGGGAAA
hERG, sequence (Q12809 whole entry): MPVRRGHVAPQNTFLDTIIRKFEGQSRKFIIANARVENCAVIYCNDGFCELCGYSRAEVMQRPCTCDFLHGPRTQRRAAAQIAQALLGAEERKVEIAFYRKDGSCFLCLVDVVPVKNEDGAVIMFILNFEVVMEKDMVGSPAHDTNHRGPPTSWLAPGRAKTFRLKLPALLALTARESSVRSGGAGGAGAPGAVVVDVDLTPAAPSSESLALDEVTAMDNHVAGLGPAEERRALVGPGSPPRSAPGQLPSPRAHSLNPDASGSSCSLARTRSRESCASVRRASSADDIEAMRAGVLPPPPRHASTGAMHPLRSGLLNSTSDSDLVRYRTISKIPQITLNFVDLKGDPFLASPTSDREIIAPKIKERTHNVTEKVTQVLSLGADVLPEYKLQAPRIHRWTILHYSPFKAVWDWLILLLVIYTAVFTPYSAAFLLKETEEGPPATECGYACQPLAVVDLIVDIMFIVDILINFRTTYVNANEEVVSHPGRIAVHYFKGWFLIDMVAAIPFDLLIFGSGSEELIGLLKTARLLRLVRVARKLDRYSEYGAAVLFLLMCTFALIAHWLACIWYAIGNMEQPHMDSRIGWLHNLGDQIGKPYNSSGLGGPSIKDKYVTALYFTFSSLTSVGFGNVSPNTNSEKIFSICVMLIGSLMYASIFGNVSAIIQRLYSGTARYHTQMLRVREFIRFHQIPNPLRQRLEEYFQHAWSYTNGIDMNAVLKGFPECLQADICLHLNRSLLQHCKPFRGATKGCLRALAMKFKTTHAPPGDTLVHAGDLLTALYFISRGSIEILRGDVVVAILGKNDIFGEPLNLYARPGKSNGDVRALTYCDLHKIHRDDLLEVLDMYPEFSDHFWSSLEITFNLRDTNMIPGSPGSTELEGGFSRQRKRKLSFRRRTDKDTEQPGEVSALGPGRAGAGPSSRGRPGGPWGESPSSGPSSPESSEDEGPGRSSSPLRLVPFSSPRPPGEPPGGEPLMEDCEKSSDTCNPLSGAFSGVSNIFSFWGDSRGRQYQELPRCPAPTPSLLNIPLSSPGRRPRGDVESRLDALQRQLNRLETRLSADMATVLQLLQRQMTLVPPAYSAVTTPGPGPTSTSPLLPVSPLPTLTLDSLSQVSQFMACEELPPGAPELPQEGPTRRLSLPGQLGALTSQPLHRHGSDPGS

With `NCCCc1ccc(-c2cc(C(=O)O)cc(-n3cc(-c4ccc(C(F)(F)F)cc4)nn3)c2)cc1` [Compound 18, 4′-(3-Aminopropyl)-5-(4-(4-(trifluoromethyl)phenyl)-1H-1,2,3-triazol-1-yl)-[1,1′-biphenyl]-3-carboxylic Acid] the “hP2Y14R affinity in words” value [1] was “submicromolar affinity” and the “off-target interactions in the standard PDSP screen” value [2] was “did not show any off-target interactions”.

In the case of `NCCCNC(=O)c1ccc(-c2cc(C(=O)O)cc(-n3cc(-c4ccc(C(F)(F)F)cc4)nn3)c2)cc1` [Compound 14, 4′-((3-Aminopropyl)carbamoyl)-5-(4-(4-(trifluoromethyl)-phenyl)-1H-1,2,3-triazol-1-yl)-[1,1′-biphenyl]-3-carboxylic Acid], the “fold lower affinity than thienyl derivative 4” value ([1]; compared to 4) is reported as 3.5 fold and the “hP2Y14R affinity in words” value [1] is reported as “submicromolar affinity”.

For `O=C(O)c1cc(-c2ccc(-c3cc(CO)on3)cc2)cc(-n2cc(-c3ccc(C(F)(F)F)cc3)nn2)c1` [Compound 29, 4′-(5-(Hydroxymethyl)isoxazol-3-yl)-5-(4-(4-(trifluoromethyl)-phenyl)-1H-1,2,3-triazol-1-yl)-[1,1′-biphenyl]-3-carboxylic Acid], the Ki [3] was 6.9 ± 1.9 µM, the “hP2Y14R affinity in words” value [1] was “submicromolar affinity” and the “hydrophilicity gain compared to 1a” value [4] was −1.06 cLogP units.

In the case of `O=C(O)c1cc(-c2ccc(C3CCNCC3)cc2)c2ccc(-c3ccc(C(F)(F)F)cc3)cc2c1` [Compound 1a, 4-[4-(4-piperidinyl)phenyl]-7-[4-(trifluoromethyl)phenyl]-2-naphthalene-carboxylic acid], the “effect on chronic pain in the CCI model” value [5] is given as “effective in reducing chronic pain”, the IC50 [6] is given as > 30 µM and the “solubility in DMSO at 20 mg mL^−1” value is given as “could not dissolve”. For the same compound, the “eosinophil counts in the BALF / efficacy in asthma model” value [7] was “reduced”.

With `NCC#Cc1ccc(-c2cc(C(=O)O)cc(-n3cc(-c4ccc(C(F)(F)F)cc4)nn3)c2)cc1` [Compound 19, 4′-(3-Aminoprop-1-yn-1-yl)-5-(4-(4-(trifluoromethyl)phenyl)-1H-1,2,3-triazol-1-yl)-[1,1′-biphenyl]-3-carboxylic Acid] the “hP2Y14R affinity in words” value [1] was “submicromolar affinity” and the “off-target interactions in the standard PDSP screen” value [2] was “did not show any off-target interactions”.

Compound `O=C(O)c1cc(-c2ccc(-c3cc(CO)on3)cc2)c2ccc(-c3ccc(C(F)(F)F)cc3)cc2c1` [Compound 32, 4-(4-(5-(Hydroxymethyl)isoxazol-3-yl)phenyl)-7-(4-(trifluoromethyl)phenyl)-2-naphthoic Acid] has an AUC(0-t) at 24 h ([8]; ip, 1 mg/kg) of 650 ng·h/mL, a Cmax at 24 h ([8]; ip, 1 mg/kg) of 88.4 ng/mL and a half-life ([8]; ip, 1 mg/kg) of 7.23 h. It also gave an AUC(0-inf) at 24 h ([8]; ip, 3 mg/kg) of 2120 ng·h/mL, an AUC(0-t) at 24 h ([8]; ip, 3 mg/kg) of 2060 ng·h/mL and a Cmax at 24 h ([8]; ip, 3 mg/kg) of 315 ng/mL. For the same compound, the half-life at 24 h ([8]; ip, 3 mg/kg) was 4.68 h, the AUC(0-inf) at 24 h ([8]; ip, 10 mg/kg) was 4920 ng·h/mL and the AUC(0-t) at 24 h ([8]; ip, 10 mg/kg) was 4900 ng·h/mL. For the same compound, the Cmax at 24 h ([8]; ip, 10 mg/kg) was 786 ng/mL, the half-life at 24 h ([8]; ip, 10 mg/kg) was 2.98 h and the AUC(0-inf) at 24 h ([8]; iv, 0.5 mg/kg) was 238 ng·h/mL. For the same compound, the AUC(0-t) at 24 h ([8]; iv, 0.5 mg/kg) was 234 ng·h/mL, the Cmax at 24 h ([8]; iv, 0.5 mg/kg) was 359 ng/mL and the Vd at 24 h ([8]; iv, 0.5 mg/kg) was 2.09 L/kg. For the same compound, the clearance at 24 h ([8]; iv, 0.5 mg/kg) was 35.2 mL/min/kg, the half-life at 24 h ([8]; iv, 0.5 mg/kg) was 0.689 h and the “maximal reversal of CCI-induced mechano-allodynia” value ([9]; 10 μmol kg^−1 (4.9 mg kg^−1), i.p., 1 h post-injection) was 71.0 ± 17.4%. The side effects ([9]; 10 μmol kg^−1, i.p.) was “No side effects were evident”, the “protection against CCI-induced mechano-allodynia at 3 or 5 h” value ([9]; 10 μmol kg^−1, i.p., 3 or 5 h post-injection) was “not statistically significant” and the clinical signs ([10]; all rat groups at all time points (up to 24 h)) was “normal”. The “Kel (1 h^−1)” value ([10]; male Wistar rats, 0.5 mg kg^−1 i.v.) was 1.01 1 h^−1, the “Cl” value [10, 13] was 23.83 mL/min/kg and the “Kel (1 h^−1)” value [10, 13] was 0.096 1 h^−1. For the same compound, the “Vd (mL kg^−1)” value [10, 13] was 14,900 mL kg^−1, the “Cl” value [10, 14] was 23.67 mL/min/kg and the “Kel (1 h^−1)” value [10, 14] was 0.148 1 h^−1. The “Vd” value [10, 14] was 9.57 L/kg, the “Cl” value [10, 15] was 33.83 mL/min/kg and the “Kel (1 h^−1)” value [10, 15] was 0.233 1 h^−1. The “Vd” value [10, 15] was 8.73 L/kg, the peak concentration ([10]; rat, 10 mg kg^−1, i.p., 4 h post-injection) was 1.61 µM and the “eosinophil counts in the BALF / efficacy in asthma model” value [7] was “no significant reduction”. The “hydrophilicity gain compared to 1a” value [4] was −0.80 cLogP units.

In the case of `CC(=O)N1CCC(c2ccc(-c3cc(C(=O)O)cc4cc(-c5ccc(C(F)(F)F)cc5)ccc34)cc2)CC1` [Compound 1b, reference compound], the “effect on chronic pain in the CCI model” value [5] is listed as “effective in reducing chronic pain” and the “eosinophil counts in the BALF / efficacy in asthma model” value [7] is listed as “no significant reduction”.

In the case of `CC(C)(C)OC(=O)N1CCC(C(=O)Nc2ccc(-c3cc(C(=O)O)cc(-n4cc(-c5ccc(C(F)(F)F)cc5)nn4)c3)cc2)CC1` [Compound 12, 4′-(1-(tert-Butoxycarbonyl)piperidine-4-carboxamido)-5-(4-(4-(trifluoromethyl)phenyl)-1H-1,2,3-triazol-1-yl)-[1,1′-biphenyl]-3-carboxylic Acid], the “fold weaker in binding than the parent amines” value ([1]; N-Boc protected forms compared to 11 and 18) is reported as > 100 fold.

In the case of `O=C(O)c1ccc(-c2cc(C(=O)O)cc(-n3cc(-c4ccc(C(F)(F)F)cc4)nn3)c2)cc1` [Compound 13, 5-(4-(4-(Trifluoromethyl)phenyl)-1H-1,2,3-triazol-1-yl)-[1,1′-bi-phenyl]-3,4′-dicarboxylic Acid], the IC50 [11] is reported as ~0.6 µM and the “off-target interactions in the standard PDSP screen” value [2] is reported as “did not show any off-target interactions”.

In the case of `CN(C)C(=O)COC(=O)c1cc(-c2ccc(C3CCNCC3)cc2)cc(-n2cc(-c3ccc(C(F)(F)F)cc3)nn2)c1` [Compound 37a, 2-(Dimethylamino)-2-oxoethyl 4′-(Piperidin-4-yl)-5-(4-(4-(trifluoromethyl)phenyl)-1H-1,2,3-triazol-1-yl)-[1,1′-biphenyl]-3-carboxylate], the “number of off-target interactions in the μM range” value [2] is reported as 18, the “off-target interactions in the standard PDSP screen” value [2] is reported as “promiscuous in off-target binding” and the “eosinophil counts in the BALF / efficacy in asthma model” value [7] is reported as “lack of in vivo activity”. The “lymphocyte count in the BALF” value ([7]; 20 μmol kg^−1, i.p.) was “trended higher than in a vehicle control”.

In the case of `CN(C)C(=O)COC(=O)c1cc(-c2ccc(-c3cc(CO)on3)cc2)c2ccc(-c3ccc(C(F)(F)F)cc3)cc2c1` [Compound 37b, 2-(Dimethylamino)-2-oxoethyl 4-(4-(5-(Hydroxymethyl)isoxazol-3-yl)phenyl)-7-(4-(trifluoromethyl)phenyl)-2-naphthoate], the “percent cleavage at 72 h” value [12] is reported as < 50%, the half-life at 1 mM [12] is reported as > 1.2 h and the “eosinophil counts in the BALF / efficacy in asthma model” value [7] is reported as “significantly reduced eosinophils; also recorded: highly efficacious”.

In the case of `O=C(O)c1cc(-c2ccc(-c3nnn[nH]3)cc2)cc(-n2cc(-c3ccc(C(F)(F)F)cc3)nn2)c1` [Compound 31, 4′-(1H-Tetrazol-5-yl)-5-(4-(4-(trifluoromethyl)phenyl)-1H-1,2,3-triazol-1-yl)-[1,1′-biphenyl]-3-carboxylic Acid], the “hP2Y14R affinity in words” value [1] is reported as “submicromolar affinity”.

With `CC(=O)N1CCC(c2ccc(-c3cc(C(=O)OCC(=O)N(C)C)cc4cc(-c5ccc(C(F)(F)F)cc5)ccc34)cc2)CC1` [Compound 37c, 2-(Dimethylamino)-2-oxoethyl 4-(4-(1-Acetylpiperidin-4-yl)-phenyl)-7-(4-(trifluoromethyl)phenyl)-2-naphthoate] the “percent cleavage at 72 h” value [12] was < 50%, the half-life at 1 mM [12] was > 1.2 h and the “eosinophil counts in the BALF / efficacy in asthma model” value [7] was “significantly reduced eosinophils; also recorded: highly efficacious”.

In the case of `CC(=O)Nc1ccc(-c2cc(C(=O)O)cc(-n3cc(-c4ccc(C(F)(F)F)cc4)nn3)c2)cc1` [Compound 8, 4′-Acetamido-5-(4-(4-(trifluoromethyl)phenyl)-1H-1,2,3-triazol-1-yl)-[1,1′-biphenyl]-3-carboxylic Acid], the “hP2Y14R affinity in words” value [1] is reported as “submicromolar affinity”.

In the case of `O=C(O)c1cc(-c2ccc(CCCCO)cc2)cc(-n2cc(-c3ccc(C(F)(F)F)cc3)nn2)c1` [Compound 21, 4′-(4-Hydroxybutyl)-5-(4-(4-(trifluoromethyl)phenyl)-1H-1,2,3-triazol-1-yl)-[1,1′-biphenyl]-3-carboxylic Acid], the “hP2Y14R affinity in words” value [1] is reported as “bound weakly”.
